Experimental data as given in PubChem BioAssay (NCI).
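Cells were grown in 96-well plates and exposed to each compound for 48 hours at five concentrations; endpoints were interpolated linearly between bracketing concentrations, or set to the highest concentration if not reached. TGI: total growth inhibition.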

Tests used:
Test in all cases: inhibition of tumour cell growth, NCI panel, 48 h
NCI-H23 lung = test system: NCI-H23 lung
OVCAR-8 ovarian = test system: OVCAR-8 ovarian
NCI-H460 lung = test system: NCI-H460 lung
OVCAR-5 ovarian = test system: OVCAR-5 ovarian
MDA-MB-231 breast = test system: MDA-MB-231 breast
M14 melanoma = test system: M14 melanoma
HS 578T breast = test system: HS 578T breast
SF-539 CNS = test system: SF-539 CNS
SNB-75 CNS = test system: SNB-75 CNS
T-47D breast = test system: T-47D breast
HCT-116 colon = test system: HCT-116 colon
HCC-2998 colon = test system: HCC-2998 colon
UACC-257 melanoma = test system: UACC-257 melanoma
EKVX NSCLC = test system: EKVX NSCLC

Structure (SMILES)	TGI (NCI-H23 lung)	TGI (OVCAR-8 ovarian)	TGI (NCI-H460 lung)	TGI (OVCAR-5 ovarian)	TGI (MDA-MB-231 breast)	TGI (M14 melanoma)	TGI (HS 578T breast)	TGI (SF-539 CNS)	TGI (SNB-75 CNS)	TGI (T-47D breast)	TGI (HCT-116 colon)	TGI (HCC-2998 colon)	TGI (UACC-257 melanoma)	TGI (EKVX NSCLC)
CCOC(=O)NC(Nc1ccc(C)cc1)(C(F)(F)F)C(F)(F)F	> 100 µM	> 100 µM	> 100 µM	> 100 µM	> 100 µM	> 100 µM	> 100 µM	> 100 µM	> 100 µM	> 100 µM	> 100 µM	> 100 µM		
COC(=O)c1c(O)ccc2c1c1c(n2Cc2cc(OC)cc(OC)c2)C(=O)c2ccccc2C1	> 100 µM	> 100 µM	> 100 µM	56.1 µM	91.6 µM	> 100 µM	> 100 µM	> 100 µM	34.5 µM		> 100 µM		> 100 µM	
CC(=O)c1ccccc1NP(=O)(c1ccccc1)c1ccccc1	> 100 µM	> 100 µM	> 100 µM	> 100 µM	> 100 µM	> 100 µM	> 100 µM	> 100 µM		> 100 µM	> 100 µM	> 100 µM	> 100 µM	> 100 µM
CC(=O)Nc1ccc(N=Nc2c(O)c(S(=O)(=O)O)cc3cc(S(=O)(=O)O)ccc23)cc1	> 100 µM	> 100 µM		> 100 µM	> 100 µM	> 100 µM	> 100 µM		> 100 µM	> 100 µM	> 100 µM		> 100 µM	> 100 µM
CCCCCCNc1n[nH]c(=O)c2c1nnn2Cc1ccccc1	> 100 µM	> 100 µM	> 100 µM	> 100 µM	> 100 µM	> 100 µM					> 100 µM	> 100 µM	> 100 µM	> 100 µM
COc1cccc(C(=O)Oc2ccc(OS(=O)(=O)c3ccc(C)cc3)cc2)c1C#N	> 100 µM	> 100 µM	> 100 µM	> 100 µM	> 100 µM	> 100 µM	> 100 µM	> 100 µM	> 100 µM	71.7 µM	> 100 µM		96.6 µM	> 100 µM
Cc1[nH]c(=O)nc2nc3ccc(Cl)cc3c(NCCNCCO)c12	21.5 µM	21.6 µM	25 µM	26.1 µM	24 µM	25.8 µM	31.8 µM	20.6 µM		23.1 µM	18.5 µM	26.5 µM	25 µM	23.8 µM
C[C@H]1[C@H]2[C@H]3CC[C@@H]4[C@@]5(C)CC[C@H](O)C(C)(C)[C@@H]5CC[C@@]4(C)[C@]3(C)C[C@H](O)[C@@]2(C)C[C@H]2O[C@]21C	40.3 µM	48.2 µM	40.1 µM	58.4 µM	36.9 µM	73.6 µM	61 µM	39 µM		46.8 µM	36.3 µM	37.4 µM	39.4 µM	73.9 µM
Cn1c(=O)c2c(ncn2CCNC(CO)C(O)c2ccc([N+](=O)[O-])cc2)n(C)c1=O (stereo not given)	> 100 µM	> 100 µM	> 100 µM		> 100 µM	> 100 µM		> 100 µM		> 100 µM	> 100 µM		> 100 µM	> 100 µM
CCN(CC)Cc1ccc(C(=S)Nc2ccc(Cl)cc2)s1	9.34 µM	18.2 µM	27.9 µM	23.7 µM		14.2 µM	32.5 µM	31.6 µM		34.2 µM	22.9 µM	26 µM	18.1 µM	19.4 µM
O=C(O)C(O)C(O)C(O)C(O)c1nc2ccccc2s1 (stereo not given)	66.1 µM	37.4 µM	31.6 µM	72.9 µM	31.9 µM	45.7 µM	60.2 µM	34.1 µM	34.7 µM	52.7 µM	30.1 µM		30.9 µM	35.8 µM
CCN(CC)CCNc1ccc2nnn3c4ccc(OCCN(CC)CC)cc4c(=O)c1c23	> 100 µM	> 100 µM	> 100 µM	> 100 µM	> 100 µM	> 100 µM	> 100 µM	> 100 µM		> 100 µM	> 100 µM	> 100 µM	> 100 µM	> 100 µM
COc1cc(OC)c2nc(C)c(CCCl)c(Cl)c2c1	> 100 µM	> 100 µM	> 100 µM	> 100 µM	> 100 µM	> 100 µM	> 100 µM	> 100 µM	> 100 µM		> 100 µM	> 100 µM	> 100 µM	> 100 µM
Cc1ccc(S(=O)(=O)c2[nH]cc(/C(=C\C3CCCCC3)[N+](=O)[O-])c2C2CCCCC2)cc1	3.1 µM	2.78 µM	2.99 µM	3.71 µM	0.515 µM	1.15 µM		2.46 µM	5.81 µM	1.29 µM	0.468 µM	0.485 µM	1.2 µM	1.4 µM
c1ccc(N=C(N2CCCC2)N(CCN2CCCC2)c2ccccc2)cc1	> 100 µM	> 100 µM	75.8 µM	> 100 µM		27 µM	> 100 µM		78 µM	> 100 µM	> 100 µM		67.6 µM	> 100 µM
COc1cc2c(cc1OC)C(CC1=C(c3ccccc3)CN3CCc4cc(OC)c(OC)cc4C3C1)NCC2 (stereo not given)	52.8 µM	36.8 µM	37.9 µM	35.4 µM		46.3 µM			28 µM			22.7 µM	34.3 µM	38.8 µM
O=C(/C=C/c1ccccc1)Oc1cccc(O)c1	> 100 µM	> 100 µM	> 100 µM	> 100 µM	> 100 µM	> 100 µM	> 100 µM	> 100 µM	> 100 µM	> 100 µM	31.8 µM	> 100 µM	> 100 µM	
COC(=O)/C=C(\C(=O)OC)C1C(=O)Oc2c(C)c(=O)c3ccccc3n21 (stereo not given)	> 100 µM	> 100 µM	> 100 µM		> 100 µM	> 100 µM	> 100 µM	> 100 µM	> 100 µM	> 100 µM	> 100 µM		> 100 µM	> 100 µM
